Key:
RIP1 = biological target: T1, RIP1 (Homo sapiens, UniProt Q13546); experiment: Fluorescent polarization based binding assay (FP Binding Assay); conditions: His-GST-RipK1(1-375) 10 nM, fluorescent labeled ligand 5 nM
T1 construct: His-GST-RipK1(1-375) was purified from a Baculovirus expression system; His (N); GST (N); made in house
T1 sequence (Q13546 1-375): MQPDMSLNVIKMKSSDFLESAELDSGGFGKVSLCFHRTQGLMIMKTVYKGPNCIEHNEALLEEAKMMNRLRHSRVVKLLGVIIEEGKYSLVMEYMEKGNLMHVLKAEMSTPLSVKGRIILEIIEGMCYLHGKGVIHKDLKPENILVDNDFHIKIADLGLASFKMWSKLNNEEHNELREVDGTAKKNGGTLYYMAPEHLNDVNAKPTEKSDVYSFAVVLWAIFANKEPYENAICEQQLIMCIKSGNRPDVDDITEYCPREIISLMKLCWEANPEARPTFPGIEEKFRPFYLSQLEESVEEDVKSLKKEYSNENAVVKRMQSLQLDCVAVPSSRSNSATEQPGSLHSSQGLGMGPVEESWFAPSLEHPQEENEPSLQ
Experimental: In vitro Assay: A fluorescent polarization based binding assay was developed to quantitate interaction of novel test compounds at the ATP binding pocket of RIP1, by competition with a fluorescently labeled ATP competitive ligand. […] Test compounds were prepared in neat DMSO and 100 nL was dispensed to individual wells of a multiwell plate. […] Following the incubation, 5 μL of the fluorescent labeled ligand solution, was added to each reaction, at twice the final assay concentration, and incubated at room temperature for at least 15 minutes. Finally, samples were read on an instrument capable of measuring fluorescent polarization. Test compound inhibition was expressed as percent inhibition of internal assay controls. For concentration response experiments, normalized data were fit and pIC50 values determined using conventional techniques.

H-22 = experiment: Syngeneic subcutaneous tumor model H-22; format: in vivo, mouse; conditions: H-22 model; Example 6 40 mg/kg p.o. BID up to 21 days
Experimental: The efficacy of RIP1 inhibition was tested in 12 different murine (6-8 week old) syngeneic subcutaneous tumor models. RIP1 inhibition was tested as a single agent in all models, with anti-PD1 combination arms added to the five of the final models.
T and C are the mean tumor volume of the treated and control groups, respectively, on a given day. • 2) Tumor and plasma collection at study end for further investigation.
Cell Culture: The 12 syngeneic cell lines were maintained in vitro with different medium (indicated in Table 3) at 37° C. in an atmosphere of 5% CO2 in air. The tumor cells were routinely subcultured twice weekly. The cells in an exponential growth phase were harvested and counted for tumor inoculation.
Each mouse was inoculated subcutaneously with tumor cells in 0.1 mL of PBS for tumor development. The treatments were started when the mean tumor size reached approximately 80-120 mm^3 (around 100 mm^3).

SMILES | FP Binding Assay (pIC50) (RIP1) | Mean tumor growth inhibition (TGI) at model termination (H-22) [%]
O=C(N[C@H]1CNc2cccc(F)c2NC1=O)c1nnc(Cc2ccccc2F)[nH]1 [Example 1, (S)—N-(9-Fluoro-2-oxo-2,3,4,5-tetrahydro-1H-benzo[b][1,4]diazepin-3-yl)-5-(2-fluorobenzyl)-4H-1,2,4-triazole-3-carboxamide] | 8.0 | –
CN1C(=O)[C@@H](NC(=O)c2n[nH]c(Cc3ccccc3F)n2)CNc2ccccc21 [Example 3, (S)-5-(2-Fluorobenzyl)-N-(1-methyl-2-oxo-2,3,4,5-tetrahydro-1H-benzo[b][1,4]diazepin-3-yl)-1H-1,2,4-triazole-3-carboxamide] | 7.4 | –
N#Cc1cc(N2CCC(C(=O)N3N=CC[C@H]3c3cc(F)cc(F)c3)CC2)ncn1 [Example 6, (S)-6-(4-(5-(3,5-difluorophenyl)-4,5-dihydro-1H-pyrazole-1-carbonyl)piperidin-1-yl)pyrimidine-4-carbonitrile] | – | 19

From patent US20200062735A1, “HETEROCYCLIC AMIDES AS KINASE INHIBITORS” (GlaxoSmithKline Intellectual Property Development Limited, priority 2017, published 2020)
